Experimental data from patent publication US20220380341A1, “INHIBITORS OF HIV-1 NEF FOR THE TREATMENT OF HIV DISEASE” (priority 2018, published 2022).
Like-named read-outs stand apart in the source and are kept apart here.

Legend:
[1] = system: HIV-1NL4-3; assay: HIV-1 infectivity assay in TZM-bl reporter cell line (LTR-luciferase, 48 h); format: cell-based; conditions: Human immunodeficiency virus 1, TZM-bl
In short: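 Luciferase read-out 48 h post-infection; compound at 1 μM during HIV-1NL4-3 infection of TZM-bl cells. Percent inhibition scaled to DMSO wild-type virus (0%) and DMSO Nef-defective virus (100% of Nef-dependent effect). Viability checked separately in uninfected cells by Cell Titer Blue.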

[2] = system: TZM-bl cell line; format: cell-based; conditions: human, 1 μM
In short: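 Read-out is luciferase from an integrated HIV-1 LTR reporter in TZM-bl cells, 48 h after HIV-1NL4-3 infection in the presence of 1 μM compound. Scale set by DMSO-treated wild-type-infected cells (0%) and Nef-defective virus (100% Nef-dependent effect). Cell Titer Blue measures cytotoxicity without virus.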

[3] = target: HIV-1 NefNL4-3 (Human immunodeficiency virus type 1 group M subtype B, UniProt P03406, A33V/T15A/T51N/V11I); assay: Surface plasmon resonance binding to recombinant full-length Nef (NL4-3); conditions: for RU30/RUNef (extent of binding): response units at 30 μM relative to Nef immobilized on the SPR chip; for Nef NL4-3 Binding, SPR 1:1 or 2-site fitting KD1: 1:1 Langmuir fit where the KD2 cell says '1 to 1 fitting', else 2-site fit
[4] = 1.0 μM, TZM-bl reporter cell line, Table 4, read-out: % Infectivity Inhibition
[5] = 48 h, Table 1, TZM-bl cells, 1 μM, 48 h, 100% = Nef-defective HIV-1, read-out: HIV-1 Infectivity % Inhibition Norm. to Δ-Nef @ 1 μM
[6] = KD, M, Table 4, SPR fit 2-step induced fit, KD = koff/kon × koff2/(koff2 + kon2)
[7] = Nef NL4-3 Binding, SPR 2-state fitting KD, Table 1, 2-step induced-fit model
[8] = Table 4, 2-step induced fit, T = 1/koff2
[9] = read-out: Nef NL4-3 Binding, SPR 1:1 or 2-site fitting KD2, Table 1, 2-site fit, second component

SMILES | inhibition at 1 µM [1, 4] | inhibition at 1 µM [1, 5] | % Cell Viability [2] | Percent Viability @ 1 μM (TZM-bl cells) [2] | Kd [3] | Kd [3, 6] | Kd [3, 7] | T, minutes (residence time) [3, 8] | RU30/RUNef (extent of binding) [3] | Kd [3, 9] | Nef NL4-3 Binding, SPR 1:1 or 2-site fitting KD1 ([3]; Table 1) | Kd ([3]; KD, M, Table 4, SPR fit 1:1 Langmuir, KD = koff/kon) | T, minutes (residence time) ([3]; Table 4, 1:1 Langmuir fit, T = 1/koff) | Kd ([3]; Nef NL4-3 Binding, SPR 1:1 or 2-site fitting KD2, Table 1, 2-site fit, second component)
CC(=O)N1CCC(CCc2c(-c3ccc(C(F)(F)F)cc3)nn(-c3nc4ccccc4[nH]3)c2O)CC1 [Compound I-719, 1-(4-{2-[1-(1H-1,3-benzodiazol-2-yl)-5-hydroxy-3-[4-(trifluoromethyl)phenyl]-1H-pyrazol-4-yl]ethyl}piperidin-1-yl)ethan-1-one] | 0% | -8.3% | 98.0% | 98.0% | 2200 nM | 451 nM | 451 nM | 4.44E + 01 minutes | 9.42E- 03 |  |  |  |  | 
CCOC(=O)N1CCC(c2nn(-c3nc4ccccc4[nH]3)c(O)c2CCC2CCOCC2)CC1 [Compound I-723, ethyl 4-[1-(1H-1,3-benzodiazol-2-yl)-5-hydroxy-4-[2-(oxan-4-yl)ethyl]-1H-pyrazol-3-yl]piperidine-1-carboxylate] | 0% | -18.1% | 92.2% | 92.2% | 2100 nM | 9090 nM | 9090 nM | 5.21E + 00 minutes | 9.19E- 03 | 12200 nM |  |  |  | 
CN(C)S(=O)(=O)N1CCC(c2nn(-c3nc4ccccc4[nH]3)c(O)c2CCC2CCOCC2)CC1 [Compound I-724, 4-[1-(1H-1,3-benzodiazol-2-yl)-5-hydroxy-4-[2-(oxan-4-yl)ethyl]-1H-pyrazol-3-yl]-N,N-dimethylpiperidine-1-sulfonamide] |  | 55.8% |  | 98.6% |  |  |  |  |  |  | No Interaction |  |  | 
CC(C)OC(=O)N1CCC(c2nn(-c3nc4ccccc4[nH]3)c(O)c2CC2CCOCC2)CC1 [Compound I-725, propan-2-yl 4-[1-(1H-1,3-benzodiazol-2-yl)-5-hydroxy-4-[(oxan-4-yl)methyl]-1H-pyrazol-3-yl]piperidine-1-carboxylate] | 37.4% | 37.4% | 95.6% | 95.6% | 3290 nM |  |  |  | 3.88E- 03 |  |  | 3290 nM | 4.73E + 00 minutes | 
CN1CCN(CC(=O)N2CCC(c3nn(-c4nc5ccccc5[nH]4)c(O)c3CCc3ccc(F)cc3)CC2)CC1 [Compound I-726, 1-{4-[1-(1H-1,3-benzodiazol-2-yl)-4-[2-(4-fluorophenyl)ethyl]-5-hydroxy-1H-pyrazol-3-yl]piperidin-1-yl}-2-(4-methylpiperazin-1-yl)ethan-1-one] |  | -4.6% |  | 102.4% |  |  |  |  |  |  | No Interaction |  |  | 
CO[C@H](C)C(=O)N1CCC(c2nn(-c3nc4ccccc4[nH]3)c(O)c2CCc2ccc(F)cc2)CC1 [Compound I-727, (2R)-1-{4-[1-(1H-1,3-benzodiazol-2-yl)-4-[2-(4-fluorophenyl)ethyl]-5-hydroxy-1H-pyrazol-3-yl]piperidin-1-yl}-2-methoxypropan-1-one] |  | 8.7% |  | 95.1% |  |  |  |  |  |  | No Interaction |  |  | 
O=C(c1cnccn1)N1CCC(c2nn(-c3nc4ccccc4[nH]3)c(O)c2CCc2ccc(F)cc2)CC1 [Compound I-728, 1-(1H-1,3-benzodiazol-2-yl)-4-[2-(4-fluorophenyl)ethyl]-3-[1-(pyrazine-2-carbonyl)piperidin-4-yl]-1H-pyrazol-5-ol] |  | 53.7% |  | 99.1% | 142 nM |  |  |  |  |  |  |  |  | 
O=C(c1ccccn1)N1CCC(c2nn(-c3nc4ccccc4[nH]3)c(O)c2CCc2ccc(F)cc2)CC1 [Compound I-730, 1-(1H-1,3-benzodiazol-2-yl)-4-[2-(4-fluorophenyl)ethyl]-3-[1-(pyridine-2-carbonyl)piperidin-4-yl]-1H-pyrazol-5-ol] |  | 24.6% |  | 95.1% |  |  |  |  |  |  | No Interaction |  |  | 
O=C(c1cccc(O)n1)N1CCC(c2nn(-c3nc4ccccc4[nH]3)c(O)c2CCc2ccc(F)cc2)CC1 [Compound I-731, 6-{4-[1-(1H-1,3-benzodiazol-2-yl)-4-[2-(4-fluorophenyl)ethyl]-5-hydroxy-1H-pyrazol-3-yl]piperidine-1-carbonyl}pyridin-2-ol] |  | 11.5% |  | 98.9% |  |  |  |  |  |  | No Interaction |  |  | 
CC[C@H](C)[C@H](O)C(=O)N1CCC(c2nn(-c3nc4ccccc4[nH]3)c(O)c2CCc2ccc(F)cc2)CC1 [Compound I-732, (2S,3S)-1-{4-[1-(1H-1,3-benzodiazol-2-yl)-4-[2-(4-fluorophenyl)ethyl]-5-hydroxy-1H-pyrazol-3-yl]piperidin-1-yl}-2-hydroxy-3-methylpentan-1-one] | 85.5% | 85.5% | 91.0% | 91.0% | 630 nM | 4210 nM | 4210 nM | 3.78E + 00 minutes | 3.09E- 03 |  |  |  |  | 1770 nM
CC[C@H](O)C(=O)N1CCC(c2nn(-c3nc4ccccc4[nH]3)c(O)c2CCc2ccc(F)cc2)CC1 [Compound I-733, (2S)-1-{4-[1-(1H-1,3-benzodiazol-2-yl)-4-[2-(4-fluorophenyl)ethyl]-5-hydroxy-1H-pyrazol-3-yl]piperidin-1-yl}-2-hydroxybutan-1-one] |  | 56.5% |  | 98.8% | 26900 nM |  |  |  |  |  |  |  |  | 
O=C(Cc1ccncc1)N1CCC(c2nn(-c3nc4ccccc4[nH]3)c(O)c2CCc2ccc(F)cc2)CC1 [Compound I-734, 1-{4-[1-(1H-1,3-benzodiazol-2-yl)-4-[2-(4-fluorophenyl)ethyl]-5-hydroxy-1H-pyrazol-3-yl]piperidin-1-yl}-2-(pyridin-4-yl)ethan-1-one] |  | -8.2% |  | 96.0% | 576 nM |  |  |  |  |  |  |  |  | 
O=C(C1CCC(O)CC1)N1CCC(c2nn(-c3nc4ccccc4[nH]3)c(O)c2CCc2ccc(F)cc2)CC1 (stereo not shown) [Compound I-735, 1-(1H-1,3-benzodiazol-2-yl)-4-[2-(4-fluorophenyl)ethyl]-3-[1-(4-hydroxycyclohexanecarbonyl)piperidin-4-yl]-1H-pyrazol-5-ol] | 38.8% | 38.8% | 96.9% | 96.9% | 46.9 nM | 0.498 nM | 0.498 nM | 6.44E + 03 minutes | 6.53E- 03 | 2800 nM |  |  |  | 
O=C(C1CCOC1)N1CCC(c2nn(-c3nc4ccccc4[nH]3)c(O)c2CCc2ccc(F)cc2)CC1 (stereo not shown) [Compound I-736, 1-(1H-1,3-benzodiazol-2-yl)-4-[2-(4-fluorophenyl)ethyl]-3-[1-(oxolane-3-carbonyl)piperidin-4-yl]-1H-pyrazol-5-ol] | 7.5% | 7.5% | 96.0% | 96.0% | 99.3 nM | 2.06 nM | 2.06 nM | 1.97E + 03 minutes | 1.02E- 02 | 1940 nM |  |  |  | 
O=C(c1ccoc1)N1CCC(c2nn(-c3nc4ccccc4[nH]3)c(O)c2CCc2ccc(F)cc2)CC1 [Compound I-737, 1-(1H-1,3-benzodiazol-2-yl)-4-[2-(4-fluorophenyl)ethyl]-3-[1-(furan-3-carbonyl)piperidin-4-yl]-1H-pyrazol-5-ol] | 0% | -4.8% | 93.0% | 93.0% | 0.00489 nM | 1.7 nM | 1.7 nM | 9.06E + 03 minutes | 1.36E- 02 | 4000 nM |  |  |  | 
O=C1NC(=O)C(CC(=O)N2CCC(c3nn(-c4nc5ccccc5[nH]4)c(O)c3CCc3ccc(F)cc3)CC2)N1 (stereo not shown) [Compound I-738, 5-(2-{4-[1-(1H-1,3-benzodiazol-2-yl)-4-[2-(4-fluorophenyl)ethyl]-5-hydroxy-1H-pyrazol-3-yl]piperidin-1-yl}-2-oxoethyl)imidazolidine-2,4-dione] |  | -9.9% |  | 100.4% |  |  |  |  |  |  | No Interaction |  |  | 
CN(C)C(=O)N1CCC(c2nn(-c3nc4ccccc4[nH]3)c(O)c2CCC2CCOCC2)CC1 [Compound I-739, 4-[1-(1H-1,3-benzodiazol-2-yl)-5-hydroxy-4-[2-(oxan-4-yl)ethyl]-1H-pyrazol-3-yl]-N,N-dimethylpiperidine-1-carboxamide] |  | -7% |  | 100.0% |  |  |  |  |  |  | No Interaction |  |  | 
